PubChem BioAssay AID1996
Values after ≈ are worked out from the molar mass of the structure shown.

Settings: buffer; pH 7.4; 200.0 µM

SMILES | solubility kinetic
COc1ccc(OCC(O)CNC(=O)Nc2ccc(C(C)(C)C)cc2)cc1 (centres undefined) | < 0.4 µg/mL
O=C1c2ccccc2C(=O)N1CCOc1ccccc1Br | 4 µg/mL (≈ 11.6 µM)
NNC(=O)CCN1CCN(Cc2ccccc2)CC1 | > 39.4 µg/mL
CCOc1cccc(/C=C/c2ccc3cccc(O)c3n2)c1OC | < 0.7 µg/mL
COc1ccc(N/C=C/C(=O)c2ccccc2)cc1 | < 0.5 µg/mL
CCN1CCN(C(=O)C2COc3ccccc3O2)CC1 (centres undefined) | > 41.5 µg/mL
O=c1c(NCCc2ccccc2)c(-c2ccccc2)c1=O | < 0.6 µg/mL
O=C(O)c1ccccc1NC(=O)C1C2CCC(O2)C1C(=O)O (centres undefined) | > 45.8 µg/mL
O=C(COC(=O)C12CC3CC(CC(C3)C1)C2)Nc1ccc2[nH]c(=O)[nH]c2c1 | 1.3 µg/mL (≈ 3.52 µM)
CC(C)CC(=O)Nc1ccc(Oc2ccc3c(c2)C(=O)NC3=O)cc1 | 0.4 µg/mL (≈ 1.18 µM)
COc1ccc(N2CCN(c3ccc([N+](=O)[O-])nc3)CC2)cc1 | 3 µg/mL (≈ 9.54 µM)
CCc1ccccc1NC(=O)C1CCN(C(=O)c2cccs2)CC1 | > 51.4 µg/mL
CN1CCC(O)(c2cccs2)C(C(=O)c2cccs2)C1 (centres undefined) | 42.1 µg/mL (≈ 137 µM)
COc1ccc(CCNC(=O)C(=O)NCc2cccs2)cc1OC | 21.4 µg/mL (≈ 61.4 µM)
Clc1ccc2nc(-c3ccc(Cl)nc3)[nH]c2c1 | 13.5 µg/mL (≈ 51.1 µM)
Cc1cc(NC(=O)COC(=O)C2CC2)ccc1Br | > 46.8 µg/mL
COC1C(C)=C(C)C(=O)N1Cc1ccccc1 (centres undefined) | 33.9 µg/mL (≈ 147 µM)
COc1ccc(/C=N\Nc2ncc(F)c(N3CCOCC3)n2)cc1OC | > 54.2 µg/mL
CCN(c1cccc2ccccc12)S(=O)(=O)c1cccs1 | 12.5 µg/mL (≈ 39.4 µM)
CC(C)[C@H](NS(=O)(=O)c1cccc(C(F)(F)F)c1)C(=O)OCC(=O)NC(=O)NCc1ccco1 | 13.4 µg/mL (≈ 26.5 µM)
Cc1nc(SC(C)C(=O)NCc2ccc3c(c2)OCO3)nc(C)c1C (centres undefined) | > 53.9 µg/mL
CN(C)C(=O)N(CCCN1CCOCC1)Cc1cccc2ccccc12 | > 53.3 µg/mL
COCCCNC(=O)c1ccc(-c2nc3ccccc3nc2-c2ccccc2)cc1 | 32.4 µg/mL (≈ 81.5 µM)
COc1ccc(S(=O)(=O)NCCc2c[nH]c3ccc(Cl)cc23)cc1 | 18.6 µg/mL (≈ 51 µM)

SMILES | solubility kinetic
CCC(=O)c1cn(CC(=O)Nc2ccccc2Cl)c2ccccc12 | 0.8 µg/mL (≈ 2.35 µM)
O=C(Nc1c(F)cccc1F)C(c1ccccc1)c1ccccc1 | < 0.7 µg/mL
O=C(O)C(=O)O.O=[N+]([O-])c1ccccc1CNC1CCCCCC1 | > 50.8 µg/mL
Cc1ccc(NC(=O)c2sc(N)nc2C)cc1 | > 37.1 µg/mL
O=S(=O)(NCc1ccc2c(c1)OCO2)c1ccc(F)cc1 | > 46.4 µg/mL
Cc1ccccc1C1NC(c2ccccc2C)C([N+](=O)[O-])C(C)(C)C1[N+](=O)[O-] (centres undefined) | 0.3 µg/mL (≈ 0.782 µM)
Cc1ccc2[nH]c(=O)cc(C(=O)OCC(=O)c3ccc(F)cc3)c2c1 | 1.5 µg/mL (≈ 4.42 µM)
O=C(COC(=O)c1cccc(Br)c1)NCCC1=CCCCC1 | 2.5 µg/mL (≈ 6.83 µM)
O=C(Nc1cccc2ccccc12)c1cccc(F)c1 | 5.8 µg/mL (≈ 21.9 µM)
Cc1ccc(NC(=O)COC(=O)C2(CC(=O)NC(C)(C)C)CCCC2)cc1C | 2.5 µg/mL (≈ 6.43 µM)
COc1ccc(C(=O)NCCNC(=O)c2cnccn2)cc1 | 37.1 µg/mL (≈ 124 µM)
N#Cc1ccc(C(=O)Nc2ccc3ccccc3c2)cc1 | 0.4 µg/mL (≈ 1.47 µM)
O=C1CNC(=S)N1Cc1cccc(Cl)c1 | > 36.1 µg/mL
COc1ccc(Cl)cc1C(=O)NN=C1CCCC1 | > 40 µg/mL
CCOC(=O)c1sc(NC(=O)CC)c(C#N)c1C | 1.4 µg/mL (≈ 5.26 µM)
Cc1ccc(C)c(OCCNc2ncccc2[N+](=O)[O-])c1 | 0.3 µg/mL (≈ 1.04 µM)
CSc1ccccc1NC(=O)CSc1cccc[n+]1[O-] | > 46 µg/mL
CC1CC(C)CN(C(=O)C(C)N(C)CC(=O)Nc2ccccc2Cl)C1 (centres undefined) | > 54.9 µg/mL
CCOC(=O)c1cnc(COc2ccc(OC)cc2)[nH]c1=O | 44.7 µg/mL (≈ 147 µM)
CCCc1cc(=O)[nH]c(SCC(=O)NC2CC2)n1 | > 40.1 µg/mL
COc1ccccc1NCCC(=O)O | > 29.3 µg/mL
Oc1ccc(N2CCN(Cc3nc4ccccc4[nH]3)CC2)cc1 | > 46.3 µg/mL
Cc1ccc(Cl)cc1NC(=O)CCC(=O)O | > 36.3 µg/mL
O=C(CSc1nc2ncc(Cl)cc2[nH]1)c1ccc2c(c1)OCO2 | 1.8 µg/mL (≈ 5.18 µM)

SMILES | solubility kinetic
COc1ccc(Cc2nc3ccccc3[nH]2)cc1OC | > 40.2 µg/mL
COc1ccc(N=c2ssnc2Cl)cc1 | 0.4 µg/mL (≈ 1.55 µM)
Cc1cc(C(=O)COC(=O)C2CC2)c(C)n1-c1ccc(F)cc1 | 12.9 µg/mL (≈ 40.9 µM)
CCNC(=O)c1ccc(NS(=O)(=O)c2ccc3[nH]c(=O)[nH]c3c2)cc1 | > 54.1 µg/mL
O=C(Nc1cc(S(=O)(=O)Nc2ccccc2Cl)ccc1O)c1ccc(F)cc1F | 3.3 µg/mL (≈ 7.52 µM)
COc1ccc(C)cc1NC(=O)CCNC(=O)c1ccco1 | > 45.3 µg/mL
COCC(C)NC(C(=O)Nc1cccc(C(C)=O)c1)c1ccccc1 (centres undefined) | > 51.1 µg/mL
Cc1c(C(=O)O)nn(-c2cccc(C(F)(F)F)c2)c(=O)c1C#N | > 48.5 µg/mL
COc1cccc(/C=C/C(=O)OCC(=O)NC2CC2)c1OC | 24 µg/mL (≈ 78.6 µM)
COc1ccccc1NC(=O)CNC(c1ccccc1)c1ccccc1 | 1.2 µg/mL (≈ 3.46 µM)
Cc1ccc(NC(=O)Nc2cnc3ccccc3c2)cc1 | 0.3 µg/mL (≈ 1.08 µM)
COc1ccc(C(=O)NCCCNC(=O)c2cccnc2)cc1OC | 44.5 µg/mL (≈ 130 µM)
Nc1c(C(=O)Nc2ccccc2)c2nc3ccccc3nc2n1-c1ccc(O)cc1 | 0.7 µg/mL (≈ 1.77 µM)
CSc1ccc(S(=O)(=O)NCCCn2ccnc2)cc1 | > 46.7 µg/mL
Cc1cccnc1NC(=O)Nc1ccccc1 | 4.1 µg/mL (≈ 18 µM)
COC(=O)c1ccccc1N=Nc1c(N)n[nH]c1N | > 39 µg/mL
COc1ccc(OCC(=O)OCC(=O)NC2CC2)cc1 | > 41.9 µg/mL
CC(=O)Nc1ccc(S(=O)(=O)Nc2ccc3c(c2)CCC3)cc1 | 4.2 µg/mL (≈ 12.7 µM)
CCCC(=O)Nc1ccc(NC(=O)c2cccc(OC)c2)cn1 | 8.7 µg/mL (≈ 27.8 µM)
O=C(Cn1cnc2c(oc3ccccc32)c1=O)N1CCCC1 | > 44.6 µg/mL
NC1=NC(=O)C(Cc2ccc(Br)cc2)S1 (centres undefined) | 36.5 µg/mL (≈ 128 µM)
COc1ccc(NC(=O)c2cccc(-c3ccc(O)cc3)c2)cn1 | 9.7 µg/mL (≈ 30.3 µM)
NS(=O)(=O)c1cccc(NC(=O)CN2CCCc3ccccc32)c1 | > 51.8 µg/mL
OCC1(Cc2ccccc2)CCN(CCCC2CCCC2)CC1 | > 47.3 µg/mL

SMILES | solubility kinetic
O=C(NCc1ccc2c(c1)OCO2)c1ccco1 | > 36.8 µg/mL
CCOc1ccc(S(=O)(=O)NCCC(=O)NC2CCC(C)CC2)cc1 (centres undefined) | 37.7 µg/mL (≈ 102 µM)
O=C(CC1C(=O)NCCN1C(=O)Nc1ccccc1)Nc1ccc(F)cc1 (centres undefined) | 52.2 µg/mL (≈ 141 µM)
CCCC(=O)Nc1ccc(C(=O)COC(=O)c2cc(C)oc2C)cc1 | 6.7 µg/mL (≈ 19.5 µM)
COc1ccc(Cc2noc(-c3ccc([N+](=O)[O-])cc3)n2)cc1OC | 2 µg/mL (≈ 5.86 µM)
CCN(CC)c1nc(N)n(CCSC(=S)N(C)C)c(=O)n1 | 45.1 µg/mL (≈ 136 µM)
CCN(CC)C(=O)Nc1ccc(Br)cc1 | > 40.7 µg/mL
Cc1ccccc1N1CCN(C(=O)NCc2cccc(Cl)c2)CC1 | 3.3 µg/mL (≈ 9.6 µM)
CCCCNC(=O)C1(NC(=O)Nc2ccccc2)CCCCC1 | 5.5 µg/mL (≈ 17.3 µM)
COc1ccc(CCNC(=O)c2cnc(C)cn2)cc1 | > 40.7 µg/mL
Nc1nc(Nc2ccc(Cl)cc2)nc(NCCO)c1[N+](=O)[O-] | 3.1 µg/mL (≈ 9.55 µM)
O=C(COC(=O)CN1C(=O)NC2(CCCC2)C1=O)NCc1ccc(Cl)cc1Cl | > 64.2 µg/mL
O=C(NC(=S)Nc1ccccc1Br)C1CCCCC1 | 2.2 µg/mL (≈ 6.45 µM)
CCc1ccc(C(=O)NC(=S)NCc2cccnc2)cc1 | 39.9 µg/mL (≈ 133 µM)
CC1CC(C)CN(S(=O)(=O)c2cccc3nonc23)C1 (centres undefined) | 5.5 µg/mL (≈ 18.6 µM)
CC1CCCCN1Cc1c[nH]c2ccccc12 (centres undefined) | 28.8 µg/mL (≈ 126 µM)
CN(Cc1ccccc1)C(=O)COc1cccnc1[N+](=O)[O-] | > 45.2 µg/mL
Cc1cc(SCNC(=O)c2ccccc2)nc(C(C)C)n1 | > 45.2 µg/mL
O=C(NCCc1nc2ccccc2[nH]1)c1ccc([N+](=O)[O-])cc1 | 8.7 µg/mL (≈ 28 µM)
COc1cccc(CNCCc2ccc3c(c2)OCO3)c1OC.O=C(O)C(=O)O | > 60.8 µg/mL
CN(c1ccc(C(=O)Nc2ccc(CC#N)cc2)cc1)S(C)(=O)=O | 4.2 µg/mL (≈ 12.2 µM)
CN1CCN(c2nc3ccccn3c(=O)c2C=O)CC1.Cl | 45 µg/mL
Clc1ccc(CN2CCN(c3ncccn3)CC2)cc1 | 29.6 µg/mL (≈ 102 µM)
COc1ccc(NC(=O)c2ccc(N3CCCC3=O)cc2)cc1Cl | 2.1 µg/mL (≈ 6.09 µM)

SMILES | solubility kinetic
Cc1ccc(NC(=O)c2cccc(N3C(=O)C4C5C=CC(C5)C4C3=O)c2)cc1C (centres undefined) | 1.5 µg/mL (≈ 3.88 µM)
Cc1nn(CCCC(=O)Nc2cccnc2)c(C)c1[N+](=O)[O-] | > 45.5 µg/mL
Cc1cc(=O)[nH]c(SCC(=O)N2CC3(C)CC2CC(C)(C)C3)n1 (centres undefined) | > 50.3 µg/mL
Cc1[nH]c2ccccc2c1CN1CCN(c2ccccn2)CC1 | 44.4 µg/mL (≈ 145 µM)
O=C(NC(=S)NCc1ccccc1)c1cccc([N+](=O)[O-])c1 | 2.2 µg/mL (≈ 6.98 µM)
CC(=O)c1ccc(Nc2nc(-c3cccnc3)cs2)cc1 | 0.9 µg/mL (≈ 3.05 µM)
CCCCN(C(=O)CSc1nc2ccccc2s1)c1c(N)n(CCCC)c(=O)[nH]c1=O | 35.6 µg/mL (≈ 77.1 µM)
COc1ccc(C(=O)NCC(=O)c2ccccc2)cc1 | > 40.4 µg/mL
Cc1ccc2[nH]c(C(F)(F)F)cc(=O)c2c1 | 33.5 µg/mL (≈ 147 µM)
CCOC(=O)c1cccc(NC(=O)CCc2ccccc2)c1 | 33.1 µg/mL (≈ 111 µM)
NC(=S)Nc1ccc(F)c(F)c1F | > 30.9 µg/mL
Cc1ccc2c(c1)C(=O)CCCCC(=O)N2 | > 32.6 µg/mL
O=C(CCN1C(=O)C2C3CCC(C3)C2C1=O)Nc1ccc(F)cc1 (centres undefined) | 36.8 µg/mL (≈ 111 µM)
Nc1cccc(C(=O)N/N=C/c2ccsc2)c1 | > 36.8 µg/mL
Cc1[nH]c(=S)c(C#N)c(C)c1Cc1ccccc1 | 8.6 µg/mL (≈ 33.8 µM)
COc1ccccc1NC(=O)C(C)OC(=O)CC1CCCC1 (centres undefined) | 29.4 µg/mL (≈ 96.3 µM)
CC(C)C(NC(=O)C1CC(=O)N(Cc2ccccc2)C1)c1nc2ccccc2[nH]1 (centres undefined) | > 58.6 µg/mL
Cc1ccc(CN(C)C2CCN(C)CC2)cc1 | 31.3 µg/mL (≈ 135 µM)
Cc1nc2ccc(NC(=O)c3cnc(Cl)c(Cl)c3)cc2s1 | 0.3 µg/mL (≈ 0.887 µM)
Cc1ccc(NC(=O)CCN2CCN(C)CC2)cc1.Cl | 36.9 µg/mL
NC(=O)c1cc(-c2ccncc2)nc2ccc(Cl)cc12 | 37 µg/mL (≈ 130 µM)
O=C(NCC(c1ccco1)N1CCOCC1)c1ccc(Cl)cc1 (centres undefined) | > 50.2 µg/mL
COCC(=O)N(Cc1cc2ccc(C)cc2[nH]c1=O)c1ccc(C)cc1C | 4.9 µg/mL (≈ 13.4 µM)
